# Patent publication US12383571B2, “Method for enhancing tyrosinase inhibitory activity” (Jiangnan University, priority 2019, dated 2025)
# System: tyrosinase
# Assay: Determination of tyrosinase activity by spectrophotometry (L-dopa substrate, 475 nm)
# Format: biochemical
# Conditions: single phenolic acid at 5 mM, other conditions as Example 1 (1.0 mg/mL protodioscin, 150° C. 30 min)
# Method: A determining method of tyrosinase activity: spectrophotometry is employed, 2.8 ml of 2.5 mM L-dopa solution is taken as a substrate, 100 μL of treated inhibitor solution is taken, then 100 μL of 0.2 mg/mL tyrosinase solution is added for incubation at 30° C. for 15 min, and then a change in its light absorption value is measured at 475 nm, and taking tyrosinase activity without an inhibitor as 100%, a calculation formula is as follows: tyrosinase relative activity/%=(B2−B1)/(A2−A1)×100,
# Where A1 and A2 represent light absorption values of a blank group at 0 min and 15 min, and B1 and B2 represent light absorption values of a sample at 0 min and 15 min. • 2.
row,tyrosinase relative activity (%),SMILES
1,80.69%,O=c1c(O)c(-c2ccc(O)c(O)c2)oc2cc(O)cc(O)c12 [quercetin]
2,97.25%,O=C(O)c1cc(O)c(O)c(O)c1 [gallic acid]

# Further lines, the compound ahead of its results:
row,SMILES,tyrosinase relative activity (%)
1,COc1cc(-c2oc3cc(O)cc(O)c3c(=O)c2O)ccc1O [isorhamnetin],82.52%
2,COc1cc(/C=C/C(=O)O)ccc1O [ferulic acid],107.56%
3,O=C(O)C=Cc1ccccc1 [cinnamic acid],102.32%
